The values below come from publication PMC5439667, “Thermal stability and kinetic constants for 129 variants of a family 1 glycoside hydrolase reveal that enzyme activity and stability can be separately designed” (PLoS ONE, 2017).

In the test the target is BglB (Paenibacillus polymyxa, UniProt P22505). The test is described as follows: Michaelis-Menten kinetics of […]-nitrophenol release (as in the previous study). It is filed as biochemical. As to conditions: wild type, batched replicates re-measured here; conditions of the kinetic assay not printed in the main text.
BglB, sequence (P22505 whole entry): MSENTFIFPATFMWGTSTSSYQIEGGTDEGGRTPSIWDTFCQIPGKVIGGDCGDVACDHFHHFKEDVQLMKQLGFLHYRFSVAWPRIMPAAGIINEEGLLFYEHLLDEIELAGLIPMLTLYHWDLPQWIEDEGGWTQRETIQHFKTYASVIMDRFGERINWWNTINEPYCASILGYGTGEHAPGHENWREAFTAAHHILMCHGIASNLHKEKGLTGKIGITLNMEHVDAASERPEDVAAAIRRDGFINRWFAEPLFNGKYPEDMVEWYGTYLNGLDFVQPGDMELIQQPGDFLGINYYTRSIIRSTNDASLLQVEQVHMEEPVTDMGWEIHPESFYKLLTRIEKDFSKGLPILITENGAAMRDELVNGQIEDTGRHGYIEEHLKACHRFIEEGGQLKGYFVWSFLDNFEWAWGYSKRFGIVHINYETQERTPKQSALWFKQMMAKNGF

As for `O=[N+]([O-])c1ccc(O[C@@H]2O[C@H](CO)[C@@H](O)[C@H](O)[C@H]2O)cc1` [pNPG], the KM result is recorded as “batched replicates of the native BglB sequence”.
